Patent US10953004B2, “Combination therapy for proliferative diseases” (Avexxin AS, priority 2016, dated 2021)

Test system: MDA-MB-468 cell line
Assay: Resazurin viability assay
Type: cell-based, human
Details: MDA-MB-468 cells
Protocol: Cell Culture. The MDA-MB-468 cell line was from ATCC. This cell line was established from a pleural effusion of patient with metastatic breast adenocarcinoma. The cells were maintained in RPMI medium supplemented with 10% (v/v) FBS, 0.3 mg/mL L-glutamine, and 0.1 mg/mL gentamicin at 37° C. in 5% CO2. Sub-culture using trypsin-EDTA was performed every 3-4 days with a split ratio of 1:3-1:6 to ensure actively proliferating cells. Resazurin Viability Assay. Cells were seeded in fully supplemented medium at a density of 7 000 cells per well in 96 well plates. After 24 hrs of cultivation, when the cells were 60% confluent, the medium was replaced with serum free medium to ensure synchronization of the cells and to increase cell sensitivity to treatment. Following 16 hrs of serum starvation, the medium was replaced with fresh serum free medium with or without Compound […], Norway), and NVP-BEZ235 (Cayman Chemicals, US) or solvent (DMSO, Sigma Aldrich, US). The cells were observed under the microscope to evaluate possible morphology changes and signs of stress before the addition of resazurin according to the manufacturers instructions (RnD Systems, UK). Resazurin was metabolized for 2 hrs (37° C., 5% CO2) before fluorescence was read at 544 nm excitation and 590 nm emission wavelengths (BioTek Synergy HT).

## Cn1c(=O)n(-c2ccc(C(C)(C)C#N)cc2)c2c3cc(-c4cnc5ccccc5c4)ccc3ncc21 [BEZ235]
Homo sapiens, serum free medium, 5 μM of each inhibitor, 24 hrs of treatment, read-out: reduction of viability
  cytotoxicity at 5 µM: ~30%
25-100 μM, results not shown
  toxicity to the cells, each inhibitor alone (initial experiments): toxic
Doses 1-5 μM, results not shown
  signs of cellular stress or cytotoxicity, each inhibitor alone (initial experiments): little or no signs of cellular stress of cytotoxicity
